Assays:
[1] = molecular target: T1, NET (Mus musculus, UniProt O55192); assay: NE transport assay in cortical synaptosomes; type: biochemical; settings: for NE transport in KRH/Ca^2+ after drug treatment: 0.1-1 μM BIM, 5 μM KN93 or 10 μM W7, 15 min at 37° C.; for Effect on reduction in NET activity on switch from KRH/Ca^2+ to KRH/EGTA / Effect on elevation in NET activity triggered by addition of Ca^2+: pre-incubation with drug; for Effect on elevation in NET activity triggered by addition of Ca^2+: KRH/EGTA to KRH/Ca^2+
T1 construct: The pellets were collected as synaptosomes; from tissue; host or cells: mouse (C57/B16) brain cortex synaptosomes
T1 sequence (O55192 whole entry): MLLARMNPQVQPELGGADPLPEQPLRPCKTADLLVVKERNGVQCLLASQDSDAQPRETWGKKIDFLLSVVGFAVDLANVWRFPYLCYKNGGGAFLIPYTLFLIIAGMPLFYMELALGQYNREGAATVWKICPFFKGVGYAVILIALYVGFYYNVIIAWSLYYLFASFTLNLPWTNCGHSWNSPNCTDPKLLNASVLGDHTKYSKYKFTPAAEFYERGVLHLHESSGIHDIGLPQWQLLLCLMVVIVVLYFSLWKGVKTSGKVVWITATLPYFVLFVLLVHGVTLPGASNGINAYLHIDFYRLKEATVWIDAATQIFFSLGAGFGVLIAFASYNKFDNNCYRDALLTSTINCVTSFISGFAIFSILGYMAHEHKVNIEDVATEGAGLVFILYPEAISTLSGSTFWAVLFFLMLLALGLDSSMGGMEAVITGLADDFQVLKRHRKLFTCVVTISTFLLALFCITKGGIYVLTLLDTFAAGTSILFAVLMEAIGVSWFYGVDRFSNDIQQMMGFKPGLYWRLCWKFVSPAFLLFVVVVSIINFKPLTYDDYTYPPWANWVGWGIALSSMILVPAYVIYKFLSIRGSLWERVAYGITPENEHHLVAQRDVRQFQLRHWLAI
Description: Cell culture, transfection of cDNA or siRNA, generation of stable cell lines, preparation of cortical synaptosomes. CHO cells were maintained in DMEM/10% fetal bovine serum (FBS), 2 mM L-glutamine (L-Glu), 100 IU/ml penicillin, 100 μg/ml streptomycin (pen/strep). […]. The stable clones were selected using hygromycin B ([…], Invitrogen) and maintained in Ham's F12/10% FBS/L-Glu/pen/strep supplemented with Zeocin […] (Invitrogen). CAD-NET cells were generated by stably transfecting HA-NET in pcDNA3 into CAD cells and maintained in DMEM/F12/8% FBS/L-Glu/pen/strep/200 μg/ml of G418 (Mediatech). TransIT-LT1 transfection reagent (Mirus) was used for all transfections. All cells were plated on poly-D-lysine coated plates and incubated for 48 hrs for cDNA transfection and for 48 to 72 hrs for siRNA transfection prior to assays. For synaptosomal preparations, brain cortex was dissected from mice (C57/B16, Harlan) and homogenized in 10 mM HEPES, 0.32 M Sucrose, pH 7.4 using a Teflon pestle/homogenizer. Homogenates were centrifuged at 1,000 g, 5 min at 4° C., and then the supernatant were re-centrifuged at 16,000 g, 20 min at 4° C. The pellets were collected as synaptosomes.
Assay buffers, transport assays, Ca^2+ imaging. NE transport assays on synaptosomes (50-100 μg/assay reaction) or cells were described previously (Sung et al., 2003). Uptake assay was carried out in KRH/Ca^2+ (mM: 120 NaCl, 4.7 KCl, 1.2 KH2PO4, 10 HEPES, 1.2 MgSO4, 2.2 CaCl2, pH 7.4,) with 0.1 mM pargylnine, ascorbic acid, tropolone, and 1.8 mg/ml glucose, otherwise mentioned. KRH/EGTA is KRH with 0.2 mM EGTA and without CaCl2. When KRH/EGTA was used, KRH/Ca^2+ for the parallel experiment contained 0.2 mM EGTA as well. Uptake assays were initiated by addition of [^3H]-NE (1-[7,8-^3H] noradrenaline, Amersham Pharmacia) at 50 nM final concentration. For kinetics assays, 50, 100, 200 nM of [^3H]-NE, 400, 600, 800, 1,000, 1,200, 1,500 nM of 20% [^3H]-NE and 80% of unlabeled NE (Sigma) were used. Nonspecific uptake was defined using 1-10 μM desipramine. All assays were carried out at 37° C. for 10 min in triplicates. Ca^2+ imaging was performed as described previously (Apparsundaram et al., 2001). CHO cells were pre-loaded with […] fura-2/acetoxymethyl ester (fura-2/AM, Molecular Probe) and superfused with KRH/EGTA and 1 μM thapsigargin for 10 min. The medium was replaced with KRH/Ca^2+ or KRH/EGTA before measurement of intracellular Ca^2+. All experiments derive from at least 3 independent data and mean values were evaluated using a two-tailed Student's t-test or a one-way ANOVA, followed by Tukey's test, with p<0.05 considered significant (*). Data were analyzed using GraphPad Prism 4.
Protocols for restoration and depletion of Ca^2+ For uptake assay, synaptosomes were pre-incubated with drugs in KRH/Ca^2+. For increase of Ca^2+, synaptosomes were re-suspended in KRH/EGTA, transferred to fresh KRH/EGTA (EGTA to EGTA) or KRH/Ca^2+ (EGTA to Ca^2+), and incubated at 37° C. for 5 min prior to the addition of radiolabeled NE. NE uptake activity of synaptosomes in KRH/Ca^2+ was compared to the activity of synaptosomes in KRH/EGTA. For reduction of Ca^2+, synaptosomes were first resuspended in KRH/Ca^2+, divided into 2 aliquots, replaced with fresh KRH/Ca^2+ (Ca^2+ to Ca^2+) or KRH/EGTA (Ca^2+ to EGTA), and incubated at 37° C. for 5 min prior to the addition of radiolabeled NE. NE uptake activity of synaptosomes in KRH/EGTA was compared to the activity of synaptosomes in KRH/Ca^2+. Control cells were treated the same way except use of complete media with vehicle. Restoration of Ca^2+ for surface biotinylation was carried out by incubating cells in KRH/EGTA with 0.1-1 μM thapsigargin for 10 min at 37° C. to deplete Ca^2+. Cells were washed once with KRH/EGTA, replaced with KRH/EGTA or KRH/Ca^2+, and incubated for 1 min at RT to 5 min at 37° C. prior to biotinylation. […]

[2] = system: NET; assay: NE transport assay in CAD-NET cells; type: cell-based, human; settings: KRH/Ca^2+
Description: Uptake assay was carried out in KRH/Ca^2+ (mM: 120 NaCl, 4.7 KCl, 1.2 KH2PO4, 10 HEPES, 1.2 MgSO4, 2.2 CaCl2, pH 7.4,) with 0.1 mM pargylnine, ascorbic acid, tropolone, and 1.8 mg/ml glucose, otherwise mentioned. KRH/EGTA is KRH with 0.2 mM EGTA and without CaCl2. When KRH/EGTA was used, KRH/Ca^2+ for the parallel experiment contained 0.2 mM EGTA as well. […] Nonspecific uptake was defined using 1-10 μM desipramine. All assays were carried out at 37° C. for 10 min in triplicates. […] All experiments derive from at least 3 independent data and mean values were evaluated using a two-tailed Student's t-test or a one-way ANOVA, followed by Tukey's test, with p<0.05 considered significant (*).

[3] = system: NET; assay: Whole cell patch clamp recording of NET currents in SCG neurons; type: cell-based, rat; settings: 200 μM CdCl2, 5 μM KN93 15 min, 2 μM STO609 20 min
Description: Whole Cell Patch Clamp Recording of NET currents. Patch clamp experiments were performed using an amplifier Axopatch 200B with a low-pass filter set at 1 kHz. Quartz patch pipettes with 5-7 MΩ resistance were pulled by a programmable puller (model P-2000, Sutter Instruments Novato, Calif.) and filled with the internal solution containing (in mM): 120 KCl, 2 MgCl2, 10 HEPES, 2 MgATP, 30 dextrose and adjusted to pH 7.35. SCG neurons were washed twice with a control solution containing mMs 130 NaCl, 5 CaCl2, 0.5 MgCl2, 1.3 KCl, 10 HEPES, 34 dextrose adjusted to pH 7.35 before experiments. NET-mediated current was defined as the current recorded in control condition minus the current recorded in presence of 5 μM desipramine. Neurons were clamp at −50 mV and the NET-mediated current was recorded by stepping the membrane voltage to −120 mV for 500 ms before and after a 2 sec depolarizing step at −10 mV. NET-mediated current was studied in the control condition, in presence of 200 μM CdCl2, after 15 min preincubation with 5 μM KN93 and after 20 min preincubation with 2 μM STO609.

[4] = system: human NET; assay: Surface biotinylation of HA-NET in transiently transfected CHO cells; type: cell-based; settings: for Effect on Ca^2+-depletion elicited reduction of NET surface density / Effect on Ca^2+-stimulated elevation of NET surface density: 5 μM KN93 30 min or 5 μM STO-609 1 hour; for Effect on Ca^2+-stimulated elevation of NET surface density: KRH/EGTA to KRH/Ca^2+; for Change of transporter surface density in response to Ca^2+ manipulations (addition or depletion): HA-tagged NET mutants in CHO cells
[5] = system: NET; assay: Surface NET immunolabeling in cultured SCG neurons on high K+ depolarization; type: cell-based, rat; settings: SCG cultures, high potassium buffer, preincubated with drug
Description: Primary neuronal culture, immunohistochemistry, electrophysiology. […] Surface-labeling of NET has been preformed by staining non-fixed SCG culture with anti-NET sera 43408 as described in (Savchenko et al., 2003). For detection of plasma membrane changes+/−depolarization, SCG neurons were preincubated with normal medium (2.5 mM K+) or in 40 mM or 90 mM K^+ for 15 min followed by incubation with NET 43408 antibody for 1 hr at RT in the absence of detergent. Cells were washed and fixed with 3% p-formaldehyde for 10 min prior to visualization of NET labeling using Cy3-conjugated anti-rabbit antibodies. Specimens from multiple fields were examined with a Zeiss LSM 510 Meta imaging system equipped with internal He/Ne and external Ar/Kr lasers. Images were collected were averaged across multiple fields of replicate experiments (n=3), pseudocolored for presentation, and pixel intensity calculated over processes immunopositive by double-staining for tubulin immunoreactivity in Metamorph.

[6] = system: human NET; assay: NE transport assay in transiently transfected CHO cells; type: cell-based
Target sequence in this assay (P23975 48-617 limits assumed): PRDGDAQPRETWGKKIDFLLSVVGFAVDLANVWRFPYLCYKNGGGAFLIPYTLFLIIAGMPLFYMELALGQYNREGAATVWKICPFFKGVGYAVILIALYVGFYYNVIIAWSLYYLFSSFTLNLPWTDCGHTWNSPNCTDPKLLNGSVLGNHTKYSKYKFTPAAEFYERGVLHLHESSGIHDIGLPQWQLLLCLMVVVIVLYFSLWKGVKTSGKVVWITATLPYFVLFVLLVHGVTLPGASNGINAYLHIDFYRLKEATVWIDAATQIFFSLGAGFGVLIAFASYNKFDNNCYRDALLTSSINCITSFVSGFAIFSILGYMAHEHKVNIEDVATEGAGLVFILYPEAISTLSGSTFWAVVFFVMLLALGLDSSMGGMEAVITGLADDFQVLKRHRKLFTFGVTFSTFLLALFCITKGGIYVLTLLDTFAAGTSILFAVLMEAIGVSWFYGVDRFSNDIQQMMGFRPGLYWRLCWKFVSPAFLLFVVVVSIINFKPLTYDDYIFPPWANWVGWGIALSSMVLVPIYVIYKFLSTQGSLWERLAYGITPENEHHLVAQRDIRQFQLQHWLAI

[7] = system: human NET; assay: [32P] metabolic labeling and immunoprecipitation of NET in stable CHO cells; type: cell-based; settings: KRH/EGTA to KRH/Ca^2+ for 5 min
Description: Cell culture, transfection of cDNA or siRNA, generation of stable cell lines, preparation of cortical synaptosomes. CHO cells were maintained in DMEM/10% fetal bovine serum (FBS), 2 mM L-glutamine (L-Glu), 100 IU/ml penicillin, 100 μg/ml streptomycin (pen/strep). CHO-NET or CHO-NET T30A cells were generated by stably transfecting HA-NET or HA-NET T30A in pcDNA5/FRT (Invitrogen) into CHO-Flip-In cells (Invitrogen). The stable clones were selected using hygromycin B ([…], Invitrogen) and maintained in Ham's F12/10% FBS/L-Glu/pen/strep supplemented with Zeocin […] (Invitrogen). CAD-NET cells were generated by stably transfecting HA-NET in pcDNA3 into CAD cells and maintained in DMEM/F12/8% FBS/L-Glu/pen/strep/200 μg/ml of G418 (Mediatech). TransIT-LT1 transfection reagent (Mirus) was used for all transfections. All cells were plated on poly-D-lysine coated plates and incubated for 48 hrs for cDNA transfection and for 48 to 72 hrs for siRNA transfection prior to assays. […]
Biochemical analysis and phosphorylation. […] Phosphorylated bands were captured via Phosphoimager (Typhoon 9400, Molecular Dynamics/GE Healthcare Life Sciences) and analyzed using ImageQuant 5.2 (Molecular Dynamics). […] Exposed films of immunoblots were scanned using an Agfa Duoscan T1200 and the captured images processed in Adobe® Photoshop® and quantitated using NIH image.

NC[C@H](O)c1ccc(O)c(O)c1 [NE, norepinephrine]
NE transport Vmax ([1]; KRH/EGTA): 0.129+/−0.0129 pmol/mg protein/min

O=C(O)c1ccc2c3c1cccc3c(=O)n1c3ccccc3nc21 [STO-609]
Basal NE transport [2]: did not influence basal NE transport
Effect on increase in NET current triggered by prior depolarization [3]: prevented the stimulation-elicited increase in NET currents
Effect on increase in NET current triggered by prior depolarization ([3]; listed as STO609): converted the stimulation-induced increase into a stimulation-elicited decrease in NET currents
Effect on Ca^2+-depletion elicited reduction of NET surface density ([4]; CHO cells): prevented a loss of NET from the surface
Effect on Ca^2+-stimulated elevation of NET surface density ([4]; CHO cells): completely blocked the increase in surface NET protein

CdCl2
Effect on increase in NET current triggered by prior depolarization [3]: prevented the increase in NET current

KN93
Depolarization triggered increase of surface NET density [5]: failed to increase surface NET density
Basal NE transport [2]: able to suppress NE transport
Effect on increase in NET current triggered by prior depolarization [3]: prevented the stimulation-elicited increase in NET currents
NE transport in KRH/Ca^2+ after drug treatment [1]: inhibited NE transport
NE transport after addition of Ca^2+, % of control ([1]; drug pre-treated synaptosomes, KRH/EGTA to KRH/Ca^2+ (2.2 mM final), 5 μM KN93): 140.5+/−11.2%
NE uptake when switched to KRH/EGTA, % of NE uptake in KRH/Ca^2+ ([1]; drug pre-treated synaptosomes, 5 μM KN93): 67.5+/−7.2%
Effect on reduction in NET activity on switch from KRH/Ca^2+ to KRH/EGTA [1]: blunted
Effect on elevation in NET activity triggered by addition of Ca^2+ [1]: significantly blunted the elevation in NET activity
Effect on Ca^2+-depletion elicited reduction of NET surface density ([4]; CHO cells): blocked
Effect on Ca^2+-stimulated elevation of NET surface density ([4]; CHO cells): blocked

NET T30A: human NET with T30 mutated to alanine, HA-tagged
Recovery of NE transport after Ca^2+ depletion ([6]; 15 min Ca^2+ restoration including 10 min transport assay): failed to recover NE transport activity
NE transport activity in KRH/Ca^2+ ([6]; transiently transfected CHO cells): equivalent to wild-type NET
Phosphorylation following Ca^2+ addition [7]: no phosphorylation
Basal surface expression versus wildtype hNET ([4]; CHO cells, n=3): 117+/−18.5%
Change of transporter surface density in response to Ca^2+ manipulations (addition or depletion) [4]: complete lack of Ca^2+ sensitivity

NET T30E: human NET mutant designed to mimic constitutive phosphorylation at T30
Change of transporter surface density in response to Ca^2+ manipulations (addition or depletion) [4]: failed to change

bisindolylmaleimide I [BIM]
NE transport in KRH/Ca^2+ after drug treatment [1]: inhibited NE transport
Effect on reduction in NET activity on switch from KRH/Ca^2+ to KRH/EGTA [1]: failed to attenuate the loss of NET activity
Effect on elevation in NET activity triggered by addition of Ca^2+ [1]: no ability to attenuate Ca^2+-stimulated NET activity
